In article PMC8072159, “5-Bis-(2,6-difluoro-benzylidene) Cyclopentanone Acts as a Selective 11β-Hydroxysteroid Dehydrogenase one Inhibitor to Treat Diet-Induced Nonalcoholic Fatty Liver Disease in Mice” (Frontiers in Pharmacology, 2021):
Entries after “also recorded” stand apart in the source; their conditions may differ.

Molecular target: T1, 11β-HSD2 (Mus musculus, UniProt P51661)
T1 construct: from tissue; host or cells: mouse kidney microsomes prepared in house
T1 sequence (P51661 1-386): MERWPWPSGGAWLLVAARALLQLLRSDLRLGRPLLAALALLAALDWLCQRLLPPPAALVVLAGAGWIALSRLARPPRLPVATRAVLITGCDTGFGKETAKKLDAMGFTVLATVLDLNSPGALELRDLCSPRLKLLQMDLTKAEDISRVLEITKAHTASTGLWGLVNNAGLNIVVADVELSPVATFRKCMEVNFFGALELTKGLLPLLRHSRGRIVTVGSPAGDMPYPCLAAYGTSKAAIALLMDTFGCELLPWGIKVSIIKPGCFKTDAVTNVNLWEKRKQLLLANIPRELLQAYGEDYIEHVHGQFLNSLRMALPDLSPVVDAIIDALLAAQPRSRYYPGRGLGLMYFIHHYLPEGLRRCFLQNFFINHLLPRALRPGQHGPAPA
Experiment: 11β-HSD2 activity in mouse kidney microsomes
Format: biochemical
Details: 100 μM
Protocol: Preparation of Rat and Mouse Liver and Kidney Microsomes
The liver and kidney microsomes were prepared as previously described ([Guo et al., 2012]). Briefly, the tissue was homogenized in […] phosphate buffered saline (PBS) containing 0.25 M sucrose, and the nuclei and large cell debris were removed by centrifugation at 1500 g for 10 min. The supernatant was transferred to a tube and the mitochondria were removed by centrifugation at 10, 000 × g for 30 min. The supernatant was transferred to an ultracentrifuge tube and centrifuged twice at 105,000 × g, the resulting microsomal precipitate was collected. The protein content was measured by the BCA kit according to the manufacturer’s instruction. The protein concentration was adjusted to 20 mg/ml. These proteins were used to measure 11β-HSD1 and 11β-HSD2 activities.
Measurement of 11β-HSD2 Activity in Rat, Mouse, and Human Kidney Microsomes
The 11β-HSD2 assay was based on rat, mouse, and human kidney microsomes, as previously described ([Ge et al., 2005]). In brief, the 11β-HSD2 activity assay tube contained 25 nM substrate (cortisol for humans, CORT for rats and mice). […] The percentage conversion of cortisol to cortisone (humans) or CORT to 11DHC (rats and mice) was calculated by dividing the radioactive count of an 11keto-steroid product by the total count associated with both substrate and product.

SMILES: O=C1/C(=C/c2c(F)cccc2F)CC/C1=C\c1c(F)cccc1F [WZS08, (2E,5E)-2,5-bis(2,6-difluorobenzylidene) Cyclopentanone]
- effect on 11β-HSD2 activity, mouse: did not affect; also recorded: almost no effect
